The record followed here is PubChem BioAssay (NCI).

Several values for one entry are separate records, joined by “and”; a condition that tells them apart may be missing. Equal entries are not always repeated.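 Test compounds were applied to cells in 96-well plates for 48 hours at 5 doses. GI50 = concentration required for 50% inhibition of growth. The concentration for full growth arrest is given as TGI.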 Bounds are passed on as bounds.

One experiment deals with HL-60(TB) leukemia. Description: NCI anticancer screen, dose series, 48 h.
Turning to `Cc1cc(O)c(C(C)C)cc1S(=O)(=O)O` (tested in a mixture with another compound), the GI50 was 0.279 µM.

With `COc1cc(C[C@H]2c3cc(OC)c(OC)cc3CCN2C)c(Oc2cc3c(cc2OC)-c2c(OC)c(OC)cc4c2[C@H](C3)N(C)CC4)cc1OC`, the GI50 was 5.71 µM; the TGI was 13.9 µM and 19.4 µM.

In the case of `Cc1ccc(S(=O)(=O)N/N=C/c2c(O)ccc3ccccc23)cc1`, the TGI was greater than 100 µM.

Take `CCN(CC)CCCC(C)Nc1ccnc2cc(Oc3ccccc3)ccc12` (stereo unspecified): the GI50 is 3.24 µM and 13.1 µM; the TGI is 9.38 µM and 41.6 µM.

As to `C=C1CCC2C3(C)COC(c4ccc(N(C)C)cc4)OC3CCC2(C)C1C/C=C1/C(=O)OCC1O` (stereo unspecified), the GI50 is 1.36 µM and the TGI came to 3.6 µM.

In turn, `COc1cc(OC(=O)c2ccccc2)cc2c1C(=O)C=CC2=O` yielded a TGI of 3.04 µM.

Turning to `CC/C=C1/C(=O)C=C[C@@H]1C/C=C\CCCC(=O)OC`, the GI50 is 2.17 µM and the TGI was 6.94 µM.

In the case of `CCN(CC)CCCCNc1c2ccccc2[n+](C)c2c1[nH]c1ccccc12`, the GI50 was 5.69 µM and the TGI is greater than 31 µM.

As for `COc1cc(NC(C)CCCNC2CN3CCC2CC3)c2ncccc2c1` (stereo unspecified), the GI50 is 2.86 µM and the TGI was determined as 11 µM.

`COc1ccc(C(=O)c2cc(OC)c(OC)c(OC)c2)cc1OC(=O)CCl`: the GI50 is less than 0.0152 µM and the TGI is less than 0.025 µM.

In the case of `CN[C@@H](C)C(=O)N[C@H](C(=O)N1CCC[C@H]1C(=O)Nc1snnc1-c1ccccc1)C1CCCCC1`, the GI50 is 21.7 µM and the TGI came to 48.1 µM.

Consider `COc1ccc(/C(COc2ccc3c(=O)cc(-c4ccccc4)oc3c2)=N\O)cc1`, for which the GI50 was greater than 14 µM and the TGI was greater than 50 µM.

In a further experiment the test system is HT29 colon. Description: NCI anticancer screen, dose series, 48 h.
`Cc1cc(O)c(C(C)C)cc1S(=O)(=O)O` (tested in a mixture with another compound): the GI50 is 0.337 µM and the TGI amounted to 1.1 µM.

As to `COc1cc(C[C@H]2c3cc(OC)c(OC)cc3CCN2C)c(Oc2cc3c(cc2OC)-c2c(OC)c(OC)cc4c2[C@H](C3)N(C)CC4)cc1OC`, the GI50 was 4.05 µM; the TGI is 17.4 µM and 14.6 µM.

Take `Cc1ccc(S(=O)(=O)N/N=C/c2c(O)ccc3ccccc23)cc1`: the TGI is greater than 100 µM.

On to `CCN(CC)CCCC(C)Nc1ccnc2cc(Oc3ccccc3)ccc12` (stereo unspecified), for which the GI50 was 0.627 µM and 1.12 µM; the TGI was 8.37 µM and 12 µM.

For `C=C1CCC2C3(C)COC(c4ccc(N(C)C)cc4)OC3CCC2(C)C1C/C=C1/C(=O)OCC1O` (stereo unspecified), the GI50 was 2.43 µM and the TGI was 6.19 µM.

The molecule `COc1cc(OC(=O)c2ccccc2)cc2c1C(=O)C=CC2=O` gave a TGI of 39.8 µM.

As for `CC/C=C1/C(=O)C=C[C@@H]1C/C=C\CCCC(=O)OC`, the GI50 is 2.25 µM and the TGI turned out to be 5.3 µM.

Turning to `CCN(CC)CCCCNc1c2ccccc2[n+](C)c2c1[nH]c1ccccc12`, the GI50 was 0.229 µM and the TGI worked out at 1.09 µM.

With `COc1cc(NC(C)CCCNC2CN3CCC2CC3)c2ncccc2c1` (stereo unspecified), the GI50 is 3.7 µM and the TGI came out at 14 µM.

In the case of `COc1ccc(C(=O)c2cc(OC)c(OC)c(OC)c2)cc1OC(=O)CCl`, the GI50 is 1.94 µM and the TGI was greater than 100 µM.

With `CN[C@@H](C)C(=O)N[C@H](C(=O)N1CCC[C@H]1C(=O)Nc1snnc1-c1ccccc1)C1CCCCC1`, the GI50 is 31.7 µM and the TGI was greater than 67.3 µM.

With `COc1ccc(/C(COc2ccc3c(=O)cc(-c4ccccc4)oc3c2)=N\O)cc1`, the GI50 is 25.6 µM and the TGI was greater than 50 µM.

Another experiment relates to KM12 colon. Briefly: NCI anticancer screen, dose series, 48 h.
Take `Cc1cc(O)c(C(C)C)cc1S(=O)(=O)O` (tested in a mixture with another compound): the GI50 was 0.381 µM.

For `COc1cc(C[C@H]2c3cc(OC)c(OC)cc3CCN2C)c(Oc2cc3c(cc2OC)-c2c(OC)c(OC)cc4c2[C@H](C3)N(C)CC4)cc1OC`, the GI50 was 13.3 µM; the TGI was 20.4 µM and 26.7 µM.

In turn, `Cc1ccc(S(=O)(=O)N/N=C/c2c(O)ccc3ccccc23)cc1` had a TGI of 44.9 µM.

On to `CCN(CC)CCCC(C)Nc1ccnc2cc(Oc3ccccc3)ccc12` (stereo unspecified), for which the GI50 was 8.52 µM and 10.6 µM; the TGI is 24.3 µM and > 100 µM.

With `C=C1CCC2C3(C)COC(c4ccc(N(C)C)cc4)OC3CCC2(C)C1C/C=C1/C(=O)OCC1O` (stereo unspecified), the GI50 was 2.62 µM and the TGI was 7.58 µM.

`COc1cc(OC(=O)c2ccccc2)cc2c1C(=O)C=CC2=O`: the TGI was determined as 38.8 µM.

For `CC/C=C1/C(=O)C=C[C@@H]1C/C=C\CCCC(=O)OC`, the GI50 was 2.08 µM and the TGI was 5.06 µM.

In the case of `CCN(CC)CCCCNc1c2ccccc2[n+](C)c2c1[nH]c1ccccc12`, the GI50 was 0.385 µM and the TGI was determined as 4.79 µM.

For `COc1cc(NC(C)CCCNC2CN3CCC2CC3)c2ncccc2c1` (stereo unspecified), the GI50 is 14.6 µM and the TGI was 29.1 µM.

As to `COc1ccc(C(=O)c2cc(OC)c(OC)c(OC)c2)cc1OC(=O)CCl`, the GI50 was less than 0.0143 µM and the TGI was greater than 100 µM.

With `CN[C@@H](C)C(=O)N[C@H](C(=O)N1CCC[C@H]1C(=O)Nc1snnc1-c1ccccc1)C1CCCCC1`, the GI50 was 34.4 µM and the TGI is greater than 100 µM.

Take `COc1ccc(/C(COc2ccc3c(=O)cc(-c4ccccc4)oc3c2)=N\O)cc1`: the GI50 is 12.5 µM and the TGI is greater than 42.6 µM.

A further experiment deals with MCF7 breast. Description: NCI anticancer screen, dose series, 48 h.
As for `Cc1cc(O)c(C(C)C)cc1S(=O)(=O)O` (tested in a mixture with another compound), the GI50 was 0.325 µM and the TGI came out at 1.57 µM.

For the molecule `COc1cc(C[C@H]2c3cc(OC)c(OC)cc3CCN2C)c(Oc2cc3c(cc2OC)-c2c(OC)c(OC)cc4c2[C@H](C3)N(C)CC4)cc1OC`, the TGI stood at 27.8 µM.

With `Cc1ccc(S(=O)(=O)N/N=C/c2c(O)ccc3ccccc23)cc1`, the TGI was greater than 100 µM.

Take `CCN(CC)CCCC(C)Nc1ccnc2cc(Oc3ccccc3)ccc12` (stereo unspecified): the GI50 is 8.46 µM and 6.01 µM; the TGI was 26.5 µM and 19.4 µM.

Turning to `C=C1CCC2C3(C)COC(c4ccc(N(C)C)cc4)OC3CCC2(C)C1C/C=C1/C(=O)OCC1O` (stereo unspecified), the GI50 is 2.32 µM and the TGI was determined as 13 µM.

Molecule `COc1cc(OC(=O)c2ccccc2)cc2c1C(=O)C=CC2=O` displayed a TGI of 52 µM.

Consider `CC/C=C1/C(=O)C=C[C@@H]1C/C=C\CCCC(=O)OC`, for which the GI50 is 1.21 µM and the TGI was determined as 11 µM.

With `CCN(CC)CCCCNc1c2ccccc2[n+](C)c2c1[nH]c1ccccc12`, the GI50 was 0.256 µM and the TGI came to 3.63 µM.

With `COc1cc(NC(C)CCCNC2CN3CCC2CC3)c2ncccc2c1` (stereo unspecified), the GI50 is 1.64 µM and the TGI stood at 3.58 µM.

With `COc1ccc(C(=O)c2cc(OC)c(OC)c(OC)c2)cc1OC(=O)CCl`, the GI50 is 0.0249 µM and the TGI was greater than 100 µM.

Consider `CN[C@@H](C)C(=O)N[C@H](C(=O)N1CCC[C@H]1C(=O)Nc1snnc1-c1ccccc1)C1CCCCC1`, for which the GI50 is 59.1 µM and the TGI was greater than 100 µM.

Regarding `COc1ccc(/C(COc2ccc3c(=O)cc(-c4ccccc4)oc3c2)=N\O)cc1`, the GI50 was 9.68 µM and the TGI is greater than 32.2 µM.

A further experiment has as its system LOX IMVI melanoma. Briefly: NCI anticancer screen, dose series, 48 h.
For `Cc1cc(O)c(C(C)C)cc1S(=O)(=O)O` (tested in a mixture with another compound), the GI50 was 0.483 µM.

With `COc1cc(C[C@H]2c3cc(OC)c(OC)cc3CCN2C)c(Oc2cc3c(cc2OC)-c2c(OC)c(OC)cc4c2[C@H](C3)N(C)CC4)cc1OC`, the GI50 is 9.21 µM; the TGI is 14.7 µM and 24.3 µM.

`Cc1ccc(S(=O)(=O)N/N=C/c2c(O)ccc3ccccc23)cc1` showed a TGI greater than 100 µM.

Turning to `CCN(CC)CCCC(C)Nc1ccnc2cc(Oc3ccccc3)ccc12` (stereo unspecified), the GI50 is 2.05 µM and 2.13 µM; the TGI was 5.06 µM and 6.82 µM.

As for `C=C1CCC2C3(C)COC(c4ccc(N(C)C)cc4)OC3CCC2(C)C1C/C=C1/C(=O)OCC1O` (stereo unspecified), the GI50 is 1.59 µM and the TGI is 3.5 µM.

As for `COc1cc(OC(=O)c2ccccc2)cc2c1C(=O)C=CC2=O`, the TGI worked out at 36.3 µM.

Consider `CC/C=C1/C(=O)C=C[C@@H]1C/C=C\CCCC(=O)OC`, for which the GI50 was 0.505 µM and the TGI stood at 1.91 µM.

As to `CCN(CC)CCCCNc1c2ccccc2[n+](C)c2c1[nH]c1ccccc12`, the GI50 was 0.346 µM and the TGI came out at 2.03 µM.

For `COc1cc(NC(C)CCCNC2CN3CCC2CC3)c2ncccc2c1` (stereo unspecified), the GI50 is 9.6 µM and the TGI was determined as 25 µM.

On to `COc1ccc(C(=O)c2cc(OC)c(OC)c(OC)c2)cc1OC(=O)CCl`, for which the GI50 was less than 0.0199 µM and the TGI is greater than 100 µM.

As for `CN[C@@H](C)C(=O)N[C@H](C(=O)N1CCC[C@H]1C(=O)Nc1snnc1-c1ccccc1)C1CCCCC1`, the GI50 is 35.3 µM and the TGI was greater than 83.3 µM.

With `COc1ccc(/C(COc2ccc3c(=O)cc(-c4ccccc4)oc3c2)=N\O)cc1`, the GI50 is 9.4 µM and the TGI worked out at 24.4 µM.
